# How the values were obtained:
# V. harveyi strains = assay: MIC, broth dilution antibacterial susceptibility test; type: cell-based
# Procedure: A series of V. harveyi strains (wild-type and mutants), marine bacteria which are used as a widely accepted model for testing quorum sensing, was used in the experiments below.
# MIC was determined according to the CLSI, formerly NCCLS (National Committee for Clinical Laboratory Standards) recommendation for broth dilution antibacterial susceptibility test.
# All the tested V. harveyi strains (adjusted to 0.5 MacFarlane standard suspension) were grown at 30° C., in the presence of the tested agent at concentrations ranging from 2 μM to 10 mM, in 96-well transparent micro-titration plates (NUNC, Denmark).
# After 18 hours of incubation, bacterial growth was determined according to the density measured by absorbance at 595 nm (GENios reader TECAN-Austria).
# Each experiment was conducted in triplicate samples and repeated three times. Based on MIC results, the exemplary anti-biofilm forming agent with the highest MIC values (lowest antibacterial activity) was selected for the anti-quorum sensing activity screening assay.
# [1] = test system: V. harveyi wild-type strain (BB120) matured biofilms; assay: Biofilm disruption by confocal scanning laser microscopy; type: cell-based; conditions: 2, 20, 200 μM (lower than MIC), 18 hours
# Procedure: The biofilm eradication concentration (BEC) for exemplary ABF agents according to embodiments of the present invention was measured as the effect of the tested agent on mature and fully formed biofilm. The effect of TZD10, an exemplary ABF agent according to embodiments of the present invention, on the depth and the density of the biofilm was determined using fluorescent stains analyzed by computer image analysis using confocal scanning laser microscopy (CLSM). Briefly, biofilms were allowed to form in sterile micrtiture dishes as described hereinabove. After washing the formed biofilm, fresh AB medium and an appropriate medium containing TZD10 were added and incubated for additional 18 hours. Bacteria in biofilm were stained with fluorescent dyes to detect the biofilm. The stained biofilms were examined with a Zeiss LSM 410 confocal laser scanning system attached to a Zeiss Axiovert inverted microscope fitted with a 40×/1.3 Plan-Neofluar lens. In each experiment, exciting laser intensity, background level, contrast and electronic zoom size were maintained at the same level. At least 3 random fields for each experiment were chosen and scored from each sample. Biofilm structure was analyzed as a series of horizontal opto-digital sections. […]
structure (smiles),measurement,setting,value
"CCCCCCCCC/C=C1\SC(=O)NC1=O [TZD10, (Z)-5-decylidenethiazolidine-2,4-dione]",antibacterial activity,V. harveyi strains; V. harveyi mutants and wild-type,lack of antibacterial activity per se
same,MIC,V. harveyi strains; Vibrio harveyi,< 10 mM
same,MIC,V. harveyi strains; strain BB120 (wild-type),<10 mM
same,MIC,"V. harveyi strains; strain BB170 (sensor 1-, sensor 2+)",<10 mM
same,MIC,V. harveyi strains; strain BB721 (LuxO null),<10 mM
same,MIC,"V. harveyi strains; strain BB886 (sensor 1+, sensor 2-)",<10 mM
same,biofilm disruption,[1],dose response effect of biofilm disruption

# Source: patent publication US8865909B2, “Anti-biofilm agents” (Yissum Research Development Company of the Hebrew …, priority 2008, dated 2014)
